Experimental data from patent publication US20110318273A1, “FLUORESCENT CONTRAST AGENTS” (GE HEALTHCARE AS, priority 2004, published 2011).

Columns and labels:
[1] = Absorption spectrum of the reduced fluorochrome in phosphate-buffered saline (diode array spectrophotometer); type: physicochemical; settings: for absorption in the visible region: reduced with sodium borohydride, diluted in phosphate-buffered saline, pH 7.4
Procedure: (§1) To 2 ml of a 1 mM solution of rhodamine 800 (Fluke, prod. No. 83701) in 0.1 M borate buffer, pH 8.5 was added approximately 5 mg of sodium borohydride. The mixture was shaken and left at room temperature for two hours. 40 microliters of the reduced solution was added to 960 μl of phosphate-buffered saline, pH 7.4. […] The spectrum of untreated rhodamine 800 (solid line) was recorded by exactly the same procedure. The sample of diluted, reduced fluorochrome was gently oxidized in air and its spectrum recorded (dashed line).
as §1, with “110 (Fluka,” for “800 (Fluke,”, “83695)” for “83701)”, “110” for “800”
as §1, with “fluorescein (Sigma,” for “rhodamine 800 (Fluke,”, “F-6377)” for “83701)”, “fluorescein” for “rhodamine 800”

[2] = Oxidation of reduced rhodamine 110 by hydrogen peroxide, increase in fluorescence; settings: hydrogen peroxide 10 μM final; emission 538 nm, excitation 485 nm
Procedure: Rhodamine 110 was reduced as in Example 2. Hydrogen peroxide to a final concentration of 10 μM was added to a portion of the solution of reduced rhodamin 110, i.e. to dihydrorhodamin 110, and the increase in fluorescence was recorded at 538 nm (excitation at 485 nm) on a Thermo Fluoroscan Ascent FL fluorimeter.

[3] = Re-oxidation of the diluted, reduced fluorochrome in air, spectrum recorded; type: physicochemical; settings: gently oxidized in air
Procedure: as §1
as §1, with “110 (Fluka,” for “800 (Fluke,”, “83695)” for “83701)”, “110” for “800”
as §1, with “fluorescein (Sigma,” for “rhodamine 800 (Fluke,”, “F-6377)” for “83701)”, “fluorescein” for “rhodamine 800”

| Structure (SMILES) | fluorescence following exposure to visible light [1] | absorption in the visible region [1] | oxidation by hydrogen peroxide (increase in fluorescence) [2] | optical properties after oxidation of the reduced fluorochrome [3] |
| --- | --- | --- | --- | --- |
| Nc1ccc2c(c1)Oc1cc(N)ccc1C2c1ccccc1C(=O)O [dihydro-rhodamine 110] | very little fluorescence | virtually no absorption in the visible region | rapidly oxidised | regaining its optical properties |
| N#CC1c2cc3c4c(c2Oc2c1cc1c5c2CCCN5CCC1)CCCN4CCC3 [dihydro-rhodamine 800] | no fluorescence | losing nearly all absorption in the visible region |  | regaining its optical properties |
| O=C(O)c1ccccc1C1c2ccc(O)cc2Oc2cc(O)ccc21 [dihydrofluorescein] | no fluorescence | losing nearly all absorption in the visible region |  | regaining its optical properties |
